Values of other authors in US5270047A, “Local delivery of dipyridamole for the treatment of proliferative diseases” (priority 1991, dated 1993).

system: vascular restenosis; conditions: current pharmacologic therapies after PTCA, atherectomy, laser angioplasty, bypass graft surgery; cited from earlier work

Molecule	effect for the treatment and prevention of vascular restenosis
O=c1ccc2ccccc2o1 [coumarin]	ineffective for the treatment and prevention of vascular restenosis
low molecular weight heparin	ineffective for the treatment and prevention of vascular restenosis
heparin	ineffective for the treatment and prevention of vascular restenosis
CCCCC[C@H](O)/C=C/[C@@H]1[C@H]2C/C(=C/CCCC(=O)O)O[C@H]2C[C@H]1O [prostacyclin]	ineffective for the treatment and prevention of vascular restenosis
CC(=O)Oc1ccccc1C(=O)O [aspirin]	ineffective for the treatment and prevention of vascular restenosis
